Compound: Cc1nc2n(c(=O)c1CCN1CCC(c3noc4cc(F)ccc34)CC1)CCCC2O (stereo not given)
- solubility (mole fraction) (in 1,4-dioxane, 288.15 K): 0.00042
- solubility (mole fraction) (in 1,4-dioxane, 293.15 K): 0.000595
- solubility (mole fraction) (in 1,4-dioxane, 298.15 K): 0.000832
- solubility (mole fraction) (in 1,4-dioxane, 303.15 K): 0.00115
- solubility (mole fraction) (in 1,4-dioxane, 308.15 K): 0.00159
- solubility (mole fraction) (in 1,4-dioxane, 313.15 K): 0.00214
- solubility (mole fraction) (in 1,4-dioxane, 318.15 K): 0.00292
- solubility (mole fraction) (in 1,4-dioxane, 323.15 K): 0.00382
- solubility (mole fraction) (in 1,4-dioxane, 328.15 K): 0.00495
- solubility (mole fraction) (in THF, 288.15 K): 0.000399
- solubility (mole fraction) (in THF, 293.15 K): 0.00055
- solubility (mole fraction) (in THF, 298.15 K): 0.000757
- solubility (mole fraction) (in THF, 303.15 K): 0.00101
- solubility (mole fraction) (in THF, 308.15 K): 0.00134
- solubility (mole fraction) (in THF, 313.15 K): 0.00177
- solubility (mole fraction) (in THF, 318.15 K): 0.00232
- solubility (mole fraction) (in THF, 323.15 K): 0.00312
- solubility (mole fraction) (in THF, 328.15 K): 0.00391
- solubility (mole fraction) (in acetone, 288.15 K): 6.42e-05
- solubility (mole fraction) (in acetone, 293.15 K): 8.92e-05
- solubility (mole fraction) (in acetone, 298.15 K): 0.000126
- solubility (mole fraction) (in acetone, 303.15 K): 0.000171
- solubility (mole fraction) (in acetone, 308.15 K): 0.000233
- solubility (mole fraction) (in acetone, 313.15 K): 0.000314
- solubility (mole fraction) (in acetone, 318.15 K): 0.000438
- solubility (mole fraction) (in acetone, 323.15 K): 0.000556
- solubility (mole fraction) (in acetone, 328.15 K): 0.000702
- solubility (mole fraction) (in acetonitrile, 288.15 K): 2.45e-05
- solubility (mole fraction) (in acetonitrile, 293.15 K): 3.58e-05
- solubility (mole fraction) (in acetonitrile, 298.15 K): 5.16e-05
- solubility (mole fraction) (in acetonitrile, 303.15 K): 7.32e-05
- solubility (mole fraction) (in acetonitrile, 308.15 K): 0.000101
- solubility (mole fraction) (in acetonitrile, 313.15 K): 0.000143
- solubility (mole fraction) (in acetonitrile, 318.15 K): 0.000195
- solubility (mole fraction) (in acetonitrile, 323.15 K): 0.000263
- solubility (mole fraction) (in acetonitrile, 328.15 K): 0.00035
- solubility (mole fraction) (in ethanol, 288.15 K): 6.58e-05
- solubility (mole fraction) (in ethanol, 293.15 K): 9.25e-05
- solubility (mole fraction) (in ethanol, 298.15 K): 0.000129
- solubility (mole fraction) (in ethanol, 303.15 K): 0.000178
- solubility (mole fraction) (in ethanol, 308.15 K): 0.000236
- solubility (mole fraction) (in ethanol, 313.15 K): 0.000338
- solubility (mole fraction) (in ethanol, 318.15 K): 0.00045
- solubility (mole fraction) (in ethanol, 323.15 K): 0.00059
- solubility (mole fraction) (in ethanol, 328.15 K): 0.00079
- solubility (mole fraction) (in ethyl acetate, 288.15 K): 5.95e-05
- solubility (mole fraction) (in ethyl acetate, 293.15 K): 8.43e-05
- solubility (mole fraction) (in ethyl acetate, 298.15 K): 0.000118
- solubility (mole fraction) (in ethyl acetate, 303.15 K): 0.000164
- solubility (mole fraction) (in ethyl acetate, 308.15 K): 0.000225
- solubility (mole fraction) (in ethyl acetate, 313.15 K): 0.000311
- solubility (mole fraction) (in ethyl acetate, 318.15 K): 0.000415
- solubility (mole fraction) (in ethyl acetate, 323.15 K): 0.00056
- solubility (mole fraction) (in ethyl acetate, 328.15 K): 0.000742
- solubility (mole fraction) (in isopropanol, 288.15 K): 2.65e-05
- solubility (mole fraction) (in isopropanol, 293.15 K): 3.97e-05
- solubility (mole fraction) (in isopropanol, 298.15 K): 5.8e-05
- solubility (mole fraction) (in isopropanol, 303.15 K): 8.16e-05
- solubility (mole fraction) (in isopropanol, 308.15 K): 0.00013
- solubility (mole fraction) (in isopropanol, 313.15 K): 0.000179
- solubility (mole fraction) (in isopropanol, 318.15 K): 0.000269
- solubility (mole fraction) (in isopropanol, 323.15 K): 0.000363
- solubility (mole fraction) (in isopropanol, 328.15 K): 0.000502
- solubility (mole fraction) (in methanol, 288.15 K): 0.000103
- solubility (mole fraction) (in methanol, 293.15 K): 0.000143
- solubility (mole fraction) (in methanol, 298.15 K): 0.000192
- solubility (mole fraction) (in methanol, 303.15 K): 0.00026
- solubility (mole fraction) (in methanol, 308.15 K): 0.000347
- solubility (mole fraction) (in methanol, 313.15 K): 0.000463
- solubility (mole fraction) (in methanol, 318.15 K): 0.000618
- solubility (mole fraction) (in methanol, 323.15 K): 0.000815
- solubility (mole fraction) (in methanol, 328.15 K): 0.00105
- solubility (mole fraction) (in methyl acetate, 288.15 K): 7.29e-05
- solubility (mole fraction) (in methyl acetate, 293.15 K): 0.000101
- solubility (mole fraction) (in methyl acetate, 298.15 K): 0.000141
- solubility (mole fraction) (in methyl acetate, 303.15 K): 0.000196
- solubility (mole fraction) (in methyl acetate, 308.15 K): 0.000266
- solubility (mole fraction) (in methyl acetate, 313.15 K): 0.000361
- solubility (mole fraction) (in methyl acetate, 318.15 K): 0.000503
- solubility (mole fraction) (in methyl acetate, 323.15 K): 0.000643
- solubility (mole fraction) (in methyl acetate, 328.15 K): 0.000814
- solubility (mole fraction) (in n-butanol, 288.15 K): 8.99e-05
- solubility (mole fraction) (in n-butanol, 293.15 K): 0.000128
- solubility (mole fraction) (in n-butanol, 298.15 K): 0.000179
- solubility (mole fraction) (in n-butanol, 303.15 K): 0.000249
- solubility (mole fraction) (in n-butanol, 308.15 K): 0.000347
- solubility (mole fraction) (in n-butanol, 313.15 K): 0.000443
- solubility (mole fraction) (in n-butanol, 318.15 K): 0.000587
- solubility (mole fraction) (in n-butanol, 323.15 K): 0.000829
- solubility (mole fraction) (in n-butanol, 328.15 K): 0.00115
- solubility (mole fraction) (in n-butyl acetate, 288.15 K): 5.19e-05
- solubility (mole fraction) (in n-butyl acetate, 293.15 K): 7.43e-05
- solubility (mole fraction) (in n-butyl acetate, 298.15 K): 0.000105
- solubility (mole fraction) (in n-butyl acetate, 303.15 K): 0.000147
- solubility (mole fraction) (in n-butyl acetate, 308.15 K): 0.000204
- solubility (mole fraction) (in n-butyl acetate, 313.15 K): 0.000282
- solubility (mole fraction) (in n-butyl acetate, 318.15 K): 0.000381
- solubility (mole fraction) (in n-butyl acetate, 323.15 K): 0.000514
- solubility (mole fraction) (in n-butyl acetate, 328.15 K): 0.000692
- solubility (mole fraction) (in n-hexanol, 288.15 K): 7.11e-05
- solubility (mole fraction) (in n-hexanol, 293.15 K): 0.00012
- solubility (mole fraction) (in n-hexanol, 298.15 K): 0.000175
- solubility (mole fraction) (in n-hexanol, 303.15 K): 0.000244
- solubility (mole fraction) (in n-hexanol, 308.15 K): 0.000332
- solubility (mole fraction) (in n-hexanol, 313.15 K): 0.000465
- solubility (mole fraction) (in n-hexanol, 318.15 K): 0.000682
- solubility (mole fraction) (in n-hexanol, 323.15 K): 0.000958
- solubility (mole fraction) (in n-hexanol, 328.15 K): 0.00125
- solubility (mole fraction) (in n-pentanol, 288.15 K): 9.07e-05
- solubility (mole fraction) (in n-pentanol, 293.15 K): 0.000129
- solubility (mole fraction) (in n-pentanol, 298.15 K): 0.000184
- solubility (mole fraction) (in n-pentanol, 303.15 K): 0.000258
- solubility (mole fraction) (in n-pentanol, 308.15 K): 0.000364
- solubility (mole fraction) (in n-pentanol, 313.15 K): 0.000553
- solubility (mole fraction) (in n-pentanol, 318.15 K): 0.000742
- solubility (mole fraction) (in n-pentanol, 323.15 K): 0.000963
- solubility (mole fraction) (in n-pentanol, 328.15 K): 0.00128
- solubility (mole fraction) (in n-propanol, 288.15 K): 7.03e-05
- solubility (mole fraction) (in n-propanol, 293.15 K): 0.000102
- solubility (mole fraction) (in n-propanol, 298.15 K): 0.000133
- solubility (mole fraction) (in n-propanol, 303.15 K): 0.000214
- solubility (mole fraction) (in n-propanol, 308.15 K): 0.000298
- solubility (mole fraction) (in n-propanol, 313.15 K): 0.000391
- solubility (mole fraction) (in n-propanol, 318.15 K): 0.00056
- solubility (mole fraction) (in n-propanol, 323.15 K): 0.000768
- solubility (mole fraction) (in n-propanol, 328.15 K): 0.00107
- solubility (mole fraction) (in n-propyl acetate, 288.15 K): 5.47e-05
- solubility (mole fraction) (in n-propyl acetate, 293.15 K): 7.82e-05
- solubility (mole fraction) (in n-propyl acetate, 298.15 K): 0.000111
- solubility (mole fraction) (in n-propyl acetate, 303.15 K): 0.000155
- solubility (mole fraction) (in n-propyl acetate, 308.15 K): 0.000214
- solubility (mole fraction) (in n-propyl acetate, 313.15 K): 0.000294
- solubility (mole fraction) (in n-propyl acetate, 318.15 K): 0.000398
- solubility (mole fraction) (in n-propyl acetate, 323.15 K): 0.000537
- solubility (mole fraction) (in n-propyl acetate, 328.15 K): 0.000728
